Experimental data reported in US20250326744A1, “PIPERAZINE DERIVATIVE OR SALT THEREOF, AND PHARMACEUTICAL COMPOSITION” (priority 2022, published 2025).
Structures can show the parent of a compound that is named as a salt.

Assays:
S-3769 strain = experiment: Combinational effect with antibacterial agent against Pseudomonas aeruginosa (Test Examples 2 and 4): S-3769 strain with AMK or GM at 1/4 MIC, EC99; type: cell-based; settings: for EC99, S-3769 strain, AMK / EC99, S-3769 strain, GM: Table 52, Test Example 2, 16 to 20 hours culture, OD595; for EC99, S-3769 strain, AMK / EC99, combinational effect with AMK, S-3769 strain: combined with AMK at 1/4 MIC; for EC99, S-3769 strain, GM / EC99, combinational effect with GM, S-3769 strain: combined with GM at 1/4 MIC; for EC99, combinational effect with AMK, S-3769 strain / EC99, combinational effect with GM, S-3769 strain: Test Example 4
Experimental: The combinational effect of the test compound with the antibacterial agent against Pseudomonas aeruginosa was evaluated.
The […] was used for evaluating the inhibitory ability against MexXY-OprM. AMK or GM was used as the antibacterial agent used in combination.
The S-3769 strain is a clinically isolated strain collected from a domestic medical institution, and is a strain in which the expression level of MexY is accelerated.
AMK and GM are aminoglycoside-based antibacterial agents, and are drugs that are not discharged outside the bacteria by MexB but are discharged outside the bacteria by MexY For the culture of each Pseudomonas aeruginosa strain, a 96-well plate (amount of culture medium per well: 100 μL) was used, and cation-adjusted Mueller Hinton broth (CAMHB) was used. The inoculation amount of the bacteria was set to 10^4 to 5 CFU/well.
The mexB (PA) strain and the S-3769 strain were cultured for 16 to 20 hours in a culture medium to which each antibacterial agent and test compounds at various concentrations (0 to 800 μM) were added, and the proliferation of the bacterial strains was evaluated by optical turbidity at 595 nm (OD595). The concentration of the antibacterial agent in the culture medium was set to ¼ MIC.
The proliferation of bacteria in a case where the test compound and the antibacterial agent were not added was measured, and compared with the proliferation of bacteria in a case where the test compound in a case where the antibacterial agent was added at the concentration of ¼ MIC was contained, and the lowest concentration of the test compound at which the proliferation was inhibited by 99% or more was defined as the drug efflux pump inhibitory ability of the test compound as 99% inhibitory effect concentration (EC99).
The effect of suppressing the proliferation of each test compound in combination with an antibacterial agent at ¼ MIC for mexB (PA) or the S-3769 strain was evaluated as follows according to the value of EC99. • S: EC99≤12.5 μM • A: 12.5 μM<EC99≤25 μM • B: 25 μM<EC99≤100 μM • C: 100 μM<EC99
The combinational effect of the test compound with the antibacterial agent against Pseudomonas aeruginosa was evaluated in the same manner as in Test Example 2.

mexB (PA) strain = experiment: Combinational effect with antibacterial agent against Pseudomonas aeruginosa (Test Examples 2 and 4): mexB (PA) strain with LVFX, TC or AZT at 1/4 MIC, EC99; type: cell-based; settings: for EC99, mexB (PA), AZT / EC99, mexB (PA), LVFX / EC99, mexB (PA), TC: Table 52, Test Example 2, 16 to 20 hours culture, OD595; for EC99, mexB (PA), AZT / EC99, combinational effect with AZT, mexB (PA): combined with AZT at 1/4 MIC; for EC99, mexB (PA), LVFX / EC99, combinational effect with LVFX, mexB (PA): combined with LVFX at 1/4 MIC; for EC99, mexB (PA), TC / EC99, combinational effect with TC, mexB (PA): combined with TC at 1/4 MIC; for EC99, combinational effect with AZT, mexB (PA) / EC99, combinational effect with LVFX, mexB (PA) / EC99, combinational effect with TC, mexB (PA): mexB (PA) strain, Test Example 4
Summary of the method: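 P. aeruginosa mexB (PA) strain, lacking MexCD-OprJ, MexEF-OprN and MexXY and overexpressing MexAB-OprM, grown 16–20 h in CAMHB (10^4–5 CFU/well) with LVFX, TC or AZT at ¼ MIC plus test compound at 0–800 μM. Growth read as OD595; EC99 is the lowest compound concentration giving ≥99% growth inhibition.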

SMILES	EC99, S-3769 strain, AMK (S-3769 strain)	EC99, S-3769 strain, GM (S-3769 strain)	EC99, mexB (PA), AZT (mexB (PA) strain)	EC99, mexB (PA), LVFX (mexB (PA) strain)	EC99, mexB (PA), TC (mexB (PA) strain)	EC99, combinational effect with AMK, S-3769 strain (S-3769 strain)	EC99, combinational effect with GM, S-3769 strain (S-3769 strain)	EC99, combinational effect with AZT, mexB (PA) (mexB (PA) strain)	EC99, combinational effect with LVFX, mexB (PA) (mexB (PA) strain)	EC99, combinational effect with TC, mexB (PA) (mexB (PA) strain)
CCOc1cccc(F)c1CN1CCN(C(=O)CN2CCC(O)(CCc3ccccc3)CC2)CC1 [Example 422, hydrochloride of 1-(4-(2-ethoxy-6-fluorobenzyl)piperazin-1-yl)-2-(4-hydroxy-4-phenethylpiperidin-1-yl)ethan-1-one]	C (100 μM<EC99)	C (100 μM<EC99)	A (12.5 μM<EC99≤25 μM)	B (25 μM<EC99≤100 μM)	A (12.5 μM<EC99≤25 μM)					
CCOc1cccc(F)c1CN1CCN(C(=O)[C@H](N)C2CCN(CCc3cc(Cl)ccc3-c3cnccc3N)CC2)CC1 [Example 93, (R)-2-amino-2-(1-(2-(4-aminopyridin-3-yl)-5-chlorophenethyl)piperidin-4-yl)-1-(4-(2-ethoxy-6-fluorobenzyl)piperazin-1-yl)ethan-1-one]	B (25 μM<EC99≤100 μM)	B (25 μM<EC99≤100 μM)	S (EC99≤12.5 μM)	S (EC99≤12.5 μM)	S (EC99≤12.5 μM)					
CSc1ccccc1CN1CCN(C(=O)[C@H](N)C2CCN(CCc3cc(Cl)ccc3-c3cc(O)cc(F)c3)CC2)CC1 [Example 617, (R)-2-amino-2-(1-(2-(4-chloro-3′-fluoro-5′-hydroxy-[1,1′-biphenyl]-2-yl)ethyl)piperidin-4-yl)-1-(4-(2-(methylthio)benzyl)piperazin-1-yl)ethan-1-one]						S (EC99≤12.5 μM)	S (EC99≤12.5 μM)	S (EC99≤12.5 μM)	S (EC99≤12.5 μM)	S (EC99≤12.5 μM)
CCOc1cccc(F)c1CN1CCN(C(=O)[C@H](N)C2CCN(CCc3cc(Cl)ccc3-c3ccsc3)CC2)CC1 [Example 101, Hydrobromide of (R)-2-amino-2-(1-(5-chloro-2-(thiophen-3-yl)phenethyl)piperidin-4-yl)-1-(4-(2-ethoxy-6-fluorobenzyl)piperazin-1-yl)ethan-1-one]	S (EC99≤12.5 μM)	S (EC99≤12.5 μM)	B (25 μM<EC99≤100 μM)	C (100 μM<EC99)	B (25 μM<EC99≤100 μM)					
CCOc1cccc(F)c1CN1CCN(C(=O)[C@H](N)C2CCN(CCc3cc(Cl)ccc3-c3ccc(F)cc3Cl)CC2)CC1 [Example 90, Hydrobromide of (R)-2-amino-2-(1-(2-(2′,4-dichloro-4′-fluoro-[1,1′-biphenyl]-2-yl)ethyl)piperidin-4-yl)-1-(4-(2-ethoxy-6-fluorobenzyl)piperazin-1-yl) ethan-1-one]	A (12.5 μM<EC99≤25 μM)	B (25 μM<EC99≤100 μM)	B (25 μM<EC99≤100 μM)	B (25 μM<EC99≤100 μM)	A (12.5 μM<EC99≤25 μM)					
N[C@@H](C(=O)N1CCN(Cc2cccc3c2CCCO3)CC1)C1CCN(CCc2cc(Cl)ccc2-c2ccccc2)CC1 [Example 515, Hydrobromide of (R)-2-amino-2-(1-(2-(4-chloro-[1,1-biphenyl]-2-yl)ethyl)piperidin-4-yl)-1-(4-(chroman-5-ylmethyl)piperazin-1-yl)ethan-1-one]						B (25 μM<EC99≤100 μM)	B (25 μM<EC99≤100 μM)	B (25 μM<EC99≤100 μM)	B (25 μM<EC99≤100 μM)	A (12.5 μM<EC99≤25 μM)
CCSc1cc(F)ccc1CN1CCN(C(=O)[C@H](N)C2CCN(CCc3cc(Cl)ccc3-c3cccc(NC)c3)CC2)CC1 [Example 607, Hydrochloride of (R)-2-amino-2-(1-(2-(4-chloro-3′-(methylamino)-[1,1-biphenyl]-2-yl)ethyl)piperidin-4-yl)-1-(4-(2-(ethylthio)-4-fluorobenzyl)piperazin-1-yl)ethan-1-one]						B (25 μM<EC99≤100 μM)	B (25 μM<EC99≤100 μM)	S (EC99≤12.5 μM)	S (EC99≤12.5 μM)	S (EC99≤12.5 μM)
CSc1ccccc1CN1CCN(C(=O)[C@H](N)C2CCN(CCc3cscc3-c3ccccc3)CC2)CC1 [Example 539, Hydrobromide of (R)-2-amino-1-(4-(2-(methylthio)benzyl)piperazin-1-yl)-2-(1-(2-(4-phenylthiophen-3-yl)ethyl)piperidin-4-yl)ethan-1-one]						B (25 μM<EC99≤100 μM)	B (25 μM<EC99≤100 μM)	B (25 μM<EC99≤100 μM)	B (25 μM<EC99≤100 μM)	B (25 μM<EC99≤100 μM)
CCOc1cccc(F)c1CN1CCN(C(=O)[C@H](N)C2CCN(CCc3cc(Cl)ccc3-c3cc(N)ccc3Cl)CC2)CC1 [Example 560, Hydrobromide of (R)-2-amino-2-(1-(2-(5′-amino-2′,4-dichloro-[1,1-biphenyl]-2-yl)ethyl)piperidin-4-yl)-1-(4-(2-ethoxy-6-fluorobenzyl)piperazin-1-yl)ethan-1-one]						A (12.5 μM<EC99≤25 μM)	A (12.5 μM<EC99≤25 μM)	S (EC99≤12.5 μM)	S (EC99≤12.5 μM)	S (EC99≤12.5 μM)
CCOc1cccc(F)c1CN1CCN(C(=O)[C@H](N)C2CCN(CCc3cc(Cl)ccc3-c3cccc(O)c3F)CC2)CC1 [Example 595, Hydrochloride of (R)-2-amino-2-(1-(2-(4-chloro-2-fluoro-3′-hydroxy-[1,1-biphenyl]-2-yl)ethyl)piperidin-4-yl)-1-(4-(2-ethoxy-6-fluorobenzyl)piperazin-1-yl)ethan-1-one]						S (EC99≤12.5 μM)	A (12.5 μM<EC99≤25 μM)	S (EC99≤12.5 μM)	S (EC99≤12.5 μM)	S (EC99≤12.5 μM)
CCSc1cc(F)ccc1CN1CCN(C(=O)[C@H](N)C2CCN(CCc3cc(Cl)ccc3-c3cc(O)cc(Cl)c3)CC2)CC1 [Example 614, (R)-2-amino-2-(1-(2-(3′,4-dichloro-5′-hydroxy-[1,1′-biphenyl]-2-yl)ethyl)piperidin-4-yl)-1-(4-(2-(ethylthio)-4-fluorobenzyl)piperazin-1-yl)ethan-1-one]						S (EC99≤12.5 μM)	S (EC99≤12.5 μM)	S (EC99≤12.5 μM)	S (EC99≤12.5 μM)	S (EC99≤12.5 μM)
